Measurements published in patent publication US12714657B2, “Magnolia extract containing compositions” (MARY KAY INC., priority 2007, dated 2026).

What was measured:
Human melanocytes = assay: Melanin production assay in melanocytes; format: cell-based; details: 6 days
Protocol: Materials and Methods: Human melanocytes from a moderately pigmented donor were purchased from Cascade Biologics (Portland, Oregon). Human dermal fibroblasts were purchased from Cambrex (Rockland, ME). In order to determine the optimal concentrations of the test materials for the whitening experiment, these materials were first examined in a proliferation assay with human dermal fibroblasts. The highest non-interfering concentration was determined for each test material and further 5-fold dilutions were made for use in melanocytes cultures. The following assay was used to the effects of the materials on melanin production. Melanocytes were seeded in the fully-supplemented 254 medium (Cascade) in 96 well plates and test materials were added 24 h later. Cells were grown for 6 days with one growth medium change. At the end of the experiment, cells were lysed with the Cellytic Mammalian Cell Lysis/Extraction Reagent (Sigma, St. Louis, MO) and melanin was solubilized in 2N NaOH. Melanin content was determined spectrophotometrically at 405 nm and standardized to total protein content from the same cultures, using Bradford reagent (Sigma, St. Louis, MO). Kojic acid was used as positive control. Cell cultures were monitored on a Nikon Eclipse inverted microscope.

Mushroom Tyrosinase = assay: Tyrosinase activity, modified Pomerantz method; format: biochemical; details: H20 = 100.0
Protocol: Tyrosinase activity was measured by the modified Pomerantz method (Biophys Res Commun, 1964). Mushroom Tyrosinase (Sigma #3212816630) stock enzyme was 5 U/well (25 U/ml). The substrate (I-DOPA, Fisher Scientific, Pittsburgh, PA) stock solution was 20 mM. Working solution was prepared in PBS for each assay. The reaction mixture consisted of 50 μl 20 mM I-DOPA and 10 μl undiluted test sample. Reaction was initiated by adding tyrosinase. Assays were preformed in 96 well flat-bottom microtiter plates (Fisher #0720087) and read at 490 nm after 5, 10, and 20 min.

| SMILES | Melanin content (% of water control) (Human melanocytes; Dilution Factor 1/25-1/125, H20 = 100%) | Tyrosinase activity, % of water control (Mushroom Tyrosinase; read at 490 nm after 5 min) | Tyrosinase activity, % of water control (Mushroom Tyrosinase; read at 490 nm after 10 min) | Tyrosinase activity, % of water control (Mushroom Tyrosinase; read at 490 nm after 20 min) | activity at 200 µM (Human melanocytes; Melanocyte, 144 h, 200 μM, H20 = 100%, read-out: Melanin Inhibition in Cells) |
| --- | --- | --- | --- | --- | --- |
| O=C1O[C@H]([C@@H](O)CO)C(O)=C1O[C@H]1O[C@H](CO)[C@@H](O)[C@H](O)[C@H]1O [Ascorbyl Glucoside, Ascorbyl glucoside] | 75-65.5% | 33.8 | 30.6 | 30.1 | – |
| O=c1cc(CO)occ1O [Kojic acid] | – | 39.0 | 35.5 | 33.1 | 83% |
